Source: patent US20230131899A1, “INHIBITORS OF MICROBIALLY INDUCED AMYLOID” (Axial Therapeutics, Inc., priority 2020, published 2023)
Like-named read-outs stand apart in the source and are kept apart here.

Biological target: T1, E. coli CsgA (Escherichia coli, UniProt P28307)
T1 construct: made in house; host or cells: E. coli NEB 3016 slyD::kan, pET11d
Assay: In vitro ThioflavinT assay of CsgA aggregation (CsgA ThT Assay)
Format: biochemical
Settings: 1005 minutes; for remaining activity at 25 µM: compound 25 μM; for remaining activity at 100 µM: compound 100 μM
Summary of the method: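 Purified C-terminal His-tagged CsgA, monomerised by desalting and 30-kDa filtration, at 2-20 μM with 20-40 μM ThT in 50 mM potassium phosphate pH 7.3, 1% DMSO, compounds 3.125-200 uM; room temperature, fluorescence (ex 438/em 495 nm) read every 15 min. Background-subtracted signal expressed as percent inhibition versus vehicle at 6-6.5 or 8-9 h, or as percent control AUC.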

[1] = read-out: CsgA ThT Assay (10 μM CsgA) % Control AUC at 1005 minutes, 25 μM (activity range), CsgA 10 μM, black plates, class symbol
[2] = read-out: CsgA ThT Assay (10 μM CsgA) % Control AUC at 1005 minutes, 25 μM, mean AUC as % of DMSO control, CsgA 10 μM, black plates
[3] = read-out: CsgA ThT Assay (10 μM CsgA) % Control AUC at 1005 minutes, 100 μM (activity range), CsgA 10 μM, black plates, class symbol
[4] = read-out: CsgA ThT Assay (10 μM CsgA) % Control AUC at 1005 minutes, 100 μM, mean AUC as % of DMSO control, CsgA 10 μM, black plates

T1 sequence (P28307 23-151): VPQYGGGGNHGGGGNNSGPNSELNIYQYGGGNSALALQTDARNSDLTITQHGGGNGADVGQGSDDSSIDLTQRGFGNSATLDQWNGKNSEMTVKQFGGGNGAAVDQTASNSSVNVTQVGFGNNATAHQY

| SMILES | remaining activity at 25 µM [1] | remaining activity at 25 µM [2] | remaining activity at 100 µM [3] | remaining activity at 100 µM [4] |
| --- | --- | --- | --- | --- |
| CN1CC(C(=O)O)n2c1c(-c1cccc(C(F)(F)F)c1)c(Cc1cccc3ccccc13)c(Br)c2=O (centres unmarked) [Compound 119, 6-bromo-1-methyl-7-(naphthalen-1-ylmethyl)-5-oxo-8-(3-(trifluoromethyl)phenyl)-1,2,3,5-tetrahydroimidazo[1,2-a]pyridine-3-carboxylic acid] | 31 to 60% | 47% | 31 to 60% | 35% |
| O=C(O)C1CN(CCCCCO)S(=O)(=O)c2c(-c3cccc(C(F)(F)F)c3)c(Cc3cccc4ccccc34)c(NC3CCCC3)c(=O)n21 (centres unmarked) [Compound 122, 7-(cyclopentylamino)-2-(5-hydroxypentyl)-8-(naphthalen-1-ylmethyl)-6-oxo-9-(3-(trifluoromethyl)phenyl)-3,4-dihydro-2H,6H-pyrido[1,2-e][1,2,5]thiadiazine-4-carboxylic acid 1,1-dioxide] | 31 to 60% | 32% | 11 to 31% | 15% |
